# In patent publication US20220160650A1, “GEL, OINTMENT, AND FOAM FORMULATIONS OF TAPINAROF AND METHODS OF USE” (Dermavant Sciences GmbH, priority 2020, published 2022):
# What was measured:
# [1] = Saturated solubility of tapinarof in individual excipients, by tapinarof assay HPLC or visually (Table 2); format: physicochemical; settings: for Average saturated solubility of DMVT-505: visual solubility
# Method in brief: (§1)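 Using either visual inspection or an HPLC assay for the active ingredient, the saturated solubility of a stilbene active ingredient was determined in a series of individual pharmaceutical excipients. Only one excipient went into each sample, so every value refers to solubility in that excipient alone.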
# [2] = Gao et al., Journal of Polymer Research 2011; cited from earlier work
# [3] = Purity of tapinarof in individual excipients on storage, related substances HPLC method; format: physicochemical
# Method in brief: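 The stability of the stilbene active ingredient was tested in individual excipients, one excipient per sample. Samples were analysed at time zero and after storage for up to 2 weeks. Purity of the active ingredient was determined by HPLC.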
# [4] = Tapinarof saturated solubility in excipients (Table 1); format: physicochemical
# Method in brief: as §1
smiles,measurement,setting,value
"CC(C)c1c(O)cc(/C=C/c2ccccc2)cc1O [tapinarof, 3,5-Dihydroxy-4-isopropyl-trans-stilbene]",Average saturated solubility of DMVT-505 (mean of n = 3),[1]; in Almond oil,11.94 % w/w
same,Average saturated solubility of DMVT-505 (mean of n = 3),[1]; in Aloe vera juice,0.01 % w/w
same,Average saturated solubility of DMVT-505 (mean of n = 3),[1]; in Castor oil,7.06 % w/w
same,Average saturated solubility of DMVT-505,[1]; in Dipropylene glycol,≥20 (visual solubility) % w/w
same,Average saturated solubility of DMVT-505,[1]; in Ethanol,≥20 (visual solubility) % w/w
same,Average saturated solubility of DMVT-505,[1]; in Isopropyl myristate,≥20 (visual solubility) % w/w
same,Average saturated solubility of DMVT-505 (mean of n = 3),[1]; in Jojoba oil,8.19 % w/w
same,Average saturated solubility of DMVT-505 (mean of n = 3),[1]; in Kollicream ® 3C (cocoyl caprylocaprate),19.03 % w/w
same,Average saturated solubility of DMVT-505 (mean of n = 3),[1]; in Kollicream ® OA (oleyl alcohol),15.82 % w/w
same,Average saturated solubility of DMVT-505 (mean of n = 3),[1]; in Kollicream ® OD (octyldodecanol),11.03 % w/w
same,Average saturated solubility of DMVT-505,[1]; in MethoxyPEG 350,≥20 (visual solubility) % w/w
same,Average saturated solubility of DMVT-505 (mean of n = 3),[1]; in Olive oil,11.35 % w/w
same,Average saturated solubility of DMVT-505,[1]; in PEG 200,≥20% (visual solubility) % w/w
same,Average saturated solubility of DMVT-505 (mean of n = 3),[1]; in Safflower oil,11.68 % w/w
same,Average saturated solubility of DMVT-505 (mean of n = 3),[1]; in Sesame oil,11.56 % w/w
same,Average saturated solubility of DMVT-505 (mean of n = 3),[1]; in Soyabean oil,11.68 % w/w
same,Average saturated solubility of DMVT-505 (mean of n = 3),[1]; in Sunflower oil,12.05 % w/w
same,Average saturated solubility of DMVT-505 (mean of n = 3),[1]; in Walnut oil,12.43 % w/w
same,Sensitivity to oxidation and photo degradation,[2],sensitive to oxidation and photo degradation
same,Purity of DMVT-505,"[3]; in Almond oil, t = 0",100.00 % area
same,Purity of DMVT-505,"[3]; in Almond oil, t = 2 weeks, 40° C.",99.96 % area
same,Purity of DMVT-505,"[3]; in Almond oil, t = 2 weeks, 70° C.",99.84 % area
same,Purity of DMVT-505,"[3]; in Arlasolve DMI, t = 0",99.55 % area
same,Purity of DMVT-505,"[3]; in Arlasolve DMI, t = 2 weeks, 40° C.",96.75 % area
same,Purity of DMVT-505,"[3]; in Arlasolve DMI, t = 2 weeks, 70° C.",95.14 % area
same,Purity of DMVT-505,"[3]; in Castor oil, t = 0",100.00 % area
same,Purity of DMVT-505,"[3]; in Castor oil, t = 2 weeks, 40° C.",100.00 % area
same,Purity of DMVT-505,"[3]; in Castor oil, t = 2 weeks, 70° C.",99.92 % area
same,Purity of DMVT-505,"[3]; in Crodamol GTCC, t = 0",99.92 % area
same,Purity of DMVT-505,"[3]; in Crodamol GTCC, t = 2 weeks, 40° C.",96.46 % area
same,Purity of DMVT-505,"[3]; in Crodamol GTCC, t = 2 weeks, 70° C.",96.94 % area
same,Purity of DMVT-505,"[3]; in Diethyl sebacate, t = 0",100.00 % area
same,Purity of DMVT-505,"[3]; in Diethyl sebacate, t = 2 weeks, 40° C.",96.72 % area
same,Purity of DMVT-505,"[3]; in Diethyl sebacate, t = 2 weeks, 70° C.",95.78 % area
same,Purity of DMVT-505,"[3]; in Diisopropyl adipate, t = 0",100.00 % area
same,Purity of DMVT-505,"[3]; in Diisopropyl adipate, t = 2 weeks, 40° C.",99.79 % area
same,Purity of DMVT-505,"[3]; in Diisopropyl adipate, t = 2 weeks, 70° C.",95.94 % area
same,Purity of DMVT-505,"[3]; in Dipropylene glycol, t = 0",99.97 % area
same,Purity of DMVT-505,"[3]; in Dipropylene glycol, t = 2 weeks, 40° C.",99.83 % area
same,Purity of DMVT-505,"[3]; in Dipropylene glycol, t = 2 weeks, 70° C.",98.89 % area
same,Purity of DMVT-505,"[3]; in Ethanol, t = 0",99.89 % area
same,Purity of DMVT-505,"[3]; in Ethanol, t = 2 weeks, 40° C.",99.72 % area
same,Purity of DMVT-505,"[3]; in Ethanol, t = 2 weeks, 70° C.",98.57 % area
same,Purity of DMVT-505,"[3]; in Hexylene glycol, t = 0",99.96 % area
same,Purity of DMVT-505,"[3]; in Hexylene glycol, t = 2 weeks, 40° C.",99.54 % area
same,Purity of DMVT-505,"[3]; in Hexylene glycol, t = 2 weeks, 70° C.",98.76 % area
same,Purity of DMVT-505,"[3]; in IPA, t = 0",99.91 % area
same,Purity of DMVT-505,"[3]; in IPA, t = 2 weeks, 40° C.",99.86 % area
same,Purity of DMVT-505,"[3]; in IPA, t = 2 weeks, 70° C.",99.25 % area
same,Purity of DMVT-505,"[3]; in IPM, t = 0",100.00 % area
same,Purity of DMVT-505,"[3]; in IPM, t = 2 weeks, 40° C.",99.32 % area
same,Purity of DMVT-505,"[3]; in IPM, t = 2 weeks, 70° C.",92.15 % area
same,Purity of DMVT-505,"[3]; in IPP, t = 0",100.00 % area
same,Purity of DMVT-505,"[3]; in IPP, t = 2 weeks, 40° C.",99.30 % area
same,Purity of DMVT-505,"[3]; in IPP, t = 2 weeks, 70° C.",99.52 % area
same,Purity of DMVT-505,"[3]; in Jojoba oil, t = 0",99.97 % area
same,Purity of DMVT-505,"[3]; in Jojoba oil, t = 2 weeks, 40° C.",98.98 % area
same,Purity of DMVT-505,"[3]; in Jojoba oil, t = 2 weeks, 70° C.",99.09 % area
same,Purity of DMVT-505,"[3]; in Kollicream ® 3C, t = 0",100.00 % area
same,Purity of DMVT-505,"[3]; in Kollicream ® 3C, t = 2 weeks, 40° C.",98.98 % area
same,Purity of DMVT-505,"[3]; in Kollicream ® 3C, t = 2 weeks, 70° C.",96.51 % area
same,Purity of DMVT-505,"[3]; in Kollicream ® OA, t = 0",100.00 % area
same,Purity of DMVT-505,"[3]; in Kollicream ® OA, t = 2 weeks, 40° C.",99.66 % area
same,Purity of DMVT-505,"[3]; in Kollicream ® OA, t = 2 weeks, 70° C.",99.46 % area
same,Purity of DMVT-505,"[3]; in Kollicream ® OD, t = 0",100.00 % area
same,Purity of DMVT-505,"[3]; in Kollicream ® OD, t = 2 weeks, 40° C.",99.38 % area
same,Purity of DMVT-505,"[3]; in Kollicream ® OD, t = 2 weeks, 70° C.",98.11 % area
same,Purity of DMVT-505,"[3]; in MethoxyPEG 350, t = 0",99.59 % area
same,Purity of DMVT-505,"[3]; in MethoxyPEG 350, t = 2 weeks, 40° C.",98.42 % area
same,Purity of DMVT-505,"[3]; in MethoxyPEG 350, t = 2 weeks, 70° C.",95.50 % area
same,Purity of DMVT-505,"[3]; in Olive oil, t = 0",100.00 % area
same,Purity of DMVT-505,"[3]; in Olive oil, t = 2 weeks, 40° C.",99.91 % area
same,Purity of DMVT-505,"[3]; in Olive oil, t = 2 weeks, 70° C.",99.74 % area
same,Purity of DMVT-505,"[3]; in PEG 200, t = 0",99.91 % area
same,Purity of DMVT-505,"[3]; in PEG 200, t = 2 weeks, 40° C.",99.86 % area
same,Purity of DMVT-505,"[3]; in PEG 200, t = 2 weeks, 70° C.",98.56 % area
same,Purity of DMVT-505,"[3]; in PEG 400, t = 0",99.87 % area
same,Purity of DMVT-505,"[3]; in PEG 400, t = 2 weeks, 40° C.",99.30 % area
same,Purity of DMVT-505,"[3]; in PEG 400, t = 2 weeks, 70° C.",98.63 % area
same,Purity of DMVT-505,"[3]; in Propylene glycol, t = 0",99.90 % area
same,Purity of DMVT-505,"[3]; in Propylene glycol, t = 2 weeks, 40° C.",99.51 % area
same,Purity of DMVT-505,"[3]; in Propylene glycol, t = 2 weeks, 70° C.",99.23 % area
same,Purity of DMVT-505,"[3]; in Sesame oil, t = 0",100.00 % area
same,Purity of DMVT-505,"[3]; in Sesame oil, t = 2 weeks, 40° C.",99.94 % area
same,Purity of DMVT-505,"[3]; in Sesame oil, t = 2 weeks, 70° C.",99.67 % area
same,Purity of DMVT-505,"[3]; in Sorbitan monooleate (Span 80), t = 0",100.00 % area
same,Purity of DMVT-505,"[3]; in Sorbitan monooleate (Span 80), t = 2 weeks, 40° C.",100.00 % area
same,Purity of DMVT-505,"[3]; in Sorbitan monooleate (Span 80), t = 2 weeks, 70° C.",99.79 % area
same,Purity of DMVT-505,"[3]; in Sunflower oil, t = 0",100.00 % area
same,Purity of DMVT-505,"[3]; in Sunflower oil, t = 2 weeks, 40° C.",100.00 % area
same,Purity of DMVT-505,"[3]; in Sunflower oil, t = 2 weeks, 70° C.",99.51 % area
same,Solubility (tapinarof saturated solubility),[4]; in Benzyl alcohol,193 mg/g
same,Solubility (tapinarof saturated solubility),[4]; in Diethyl sebacate,488 mg/g
same,Solubility (tapinarof saturated solubility),[4]; in Diisopropyl adipate,187 mg/g
same,Solubility (tapinarof saturated solubility),[4]; in Dimethyl isosorbide,496 mg/g
same,Solubility (tapinarof saturated solubility),[4]; in Glycerol,14 mg/g
same,Solubility (tapinarof saturated solubility),[4]; in Hexylene glycol,386 mg/g
same,Solubility (tapinarof saturated solubility),[4]; in Isopropyl alcohol,485 mg/g
same,Solubility (tapinarof saturated solubility),[4]; in Isopropyl palmitate,231 mg/g
same,Solubility (tapinarof saturated solubility),[4]; in Medium chain triglycerides,273 mg/g
same,Solubility (tapinarof saturated solubility),[4]; in Mineral oil,0.26 mg/g
same,Solubility (tapinarof saturated solubility),[4]; in Phenoxyethanol,381 mg/g
same,Solubility (tapinarof saturated solubility),[4]; in Polyethylene glycol 400,373 mg/g
same,Solubility (tapinarof saturated solubility),[4]; in Polysorbate 80,263 mg/g
same,Solubility (tapinarof saturated solubility),[4]; in Propylene carbonate,506 mg/g
same,Solubility (tapinarof saturated solubility),[4]; in Propylene glycol,444 mg/g
same,Solubility (tapinarof saturated solubility),[4]; in Sorbitan oleate,137 mg/g
same,Solubility (tapinarof saturated solubility),[4]; in Water,0.14 mg/g
same,Solubility (tapinarof saturated solubility),[4]; in diethylene glycol monoethyl ether (DEGEE),526 mg/g
